According to patent publication US10993933B2, “Oral dosage forms of bendamustine” (ASTELLAS DEUTSCHLAND GMBH, priority 2010, dated 2021):

Key:
[1] = Phase 1 crossover study, plasma pharmacokinetics after oral and i.v. bendamustine (Example 8); settings: for AUCinf / AUClast / Cmax / t1/2 / tmax: mean, n=11; for Mean AUCinf of bendamustine relative to that of the metabolite (times higher) / exposure relative to that of bendamustine / AUCinf after oral administration as % of AUCinf after intravenous administration: patients; for Mean AUCinf of bendamustine relative to that of the metabolite (times higher) / exposure relative to that of bendamustine: oral administration; for AUCinf after oral administration as % of AUCinf after intravenous administration: 90% CI M3: 76%, 98%, M4: 77%, 102%
Protocol: An open label, randomized two-way crossover study to assess the absolute bioavailability of oral bendamustine in patients with cancer was conducted to assess the absolute bioavailability of bendamustine administered as an oral formulation (example 2). Besides assessing the pharmacokinetics of bendamustine in plasma following oral and i.v. administration, a further objective was to evaluate the safety and tolerability of bendamustine following i.v. and especially oral administration of the formulation of example 2.
14 patients who were suffering from multiple myeloma, B-cell type chronic lymphocytic leukemia or advanced indolent non-Hodgkin's lymphoma were enrolled and were treated with bendamustine. […] After signing the informed consent form and following the screening period (days −21 to −2), eligible patients were assigned a patient number which was specific for each study site. Patients were randomized to receive one of the following on day 1 followed by the other on day 8: • a single oral dose of 110.2 mg (2×55.1 mg) bendamustine HCl • a single intravenous dose of 100 mg bendamustine HCl
Bendamustine was provided a) orally as capsules, a LFHC formulation (liquid-filled, hard-shell capsule) and b) intravenously as a solution after reconstituting a powder for the preparation of a solution for injection. The LFHC formulation (per capsule) was prepared from 55.1 mg bendamustine hydrochloride, 1.2 mg methylparaben, 0.12 mg […], 0.12 mg butylated hydroxytoluene, 10.9 mg ethanol and 532.56 mg CREMOPHOR RH40. The vial with powder for concentrate for solution was the marketed product in Germany (RIBOMUSTINE) which contains per vial 100 mg of bendamustine hydrochloride and mannitol as an excipient. This product was reconstituted with water for injection to a final concentration of 2.5 mg/ml of bendamustine HCl and was further diluted with 0.9% NaCl until about 500 ml before administration to the patient, in accordance with the instructions of the package insert.
Patients were admitted to the study site for 2 periods; days −1 to 2 (period 1) and days 7 to 9 (period 2). A total of 12 patients was to be randomized to receive treatment. Six patients were to receive treatment with a single oral dose of 110.2 mg (2×55.1 mg) bendamustine HCl (day 1) followed by a single intravenous dose of 100 mg bendamustine HCl (day 8) while 6 other patients were to receive treatment in the alternate order. Patients underwent a washout period of at least 7 days between treatments.
After oral and intravenous administration of bendamustine the concentration of bendamustine, as well as that of the active metabolites of bendamustine (M3 and M4), were determined in plasma and urine samples on day 1 and day 8. Patients returned to the study site for an end-of-study visit 7 to 14 days after completion of the second treatment period, or after early discharge/withdrawal. Subsequently the pharmacokinetic parameters of bendamustine and its metabolites were calculated.

[2] = Phase 1 crossover study, urine pharmacokinetics (Example 8); type: in vivo, human; settings: for percentage of the dose excreted in urine as metabolite: patients, oral administration
Text: Urine pharmacokinetic parameters of bendamustine, M3 and M4 are presented in Table 27, Table 28 and Table 29, respectively. The percentage of the dose excreted in urine unchanged was low (2.6% and 2.1% for oral and intravenous bendamustine, respectively).

[3] = M3 in plasma, Bendamustine HCl 100 mg intravenously
[4] = M3 in plasma, Bendamustine HCl 110.2 mg orally
[5] = M3 in urine, Bendamustine HCl 100 mg intravenously, mean, n=11
[6] = M3 in urine, Bendamustine HCl 100 mg intravenously, median, n=11
[7] = M3 in urine, Bendamustine HCl 100 mg intravenously, min-max, n=11
[8] = M3 in urine, Bendamustine HCl 110.2 mg orally, mean, n=10
[9] = M3 in urine, Bendamustine HCl 110.2 mg orally, median, n=10
[10] = M3 in urine, Bendamustine HCl 110.2 mg orally, min-max, n=10
[11] = M4 in plasma, Bendamustine HCl 100 mg intravenously
[12] = M4 in plasma, Bendamustine HCl 110.2 mg orally
[13] = M4 in urine, Bendamustine HCl 100 mg intravenously, mean, n=11
[14] = M4 in urine, Bendamustine HCl 100 mg intravenously, median, n=11
[15] = M4 in urine, Bendamustine HCl 100 mg intravenously, min-max, n=11
[16] = M4 in urine, Bendamustine HCl 110.2 mg orally, mean, n=10
[17] = M4 in urine, Bendamustine HCl 110.2 mg orally, median, n=10
[18] = M4 in urine, Bendamustine HCl 110.2 mg orally, min-max, n=10

Cn1c(C(O)CCC(=O)O)nc2cc(N(CCCl)CCCl)ccc21 (stereo not shown) [Batch M3, γ-hydroxybendamustine]
AUCinf [1, 3]: 372 ng·h/mL
AUClast [1, 3]: 370 ng·h/mL
Cmax [1, 3]: 344 ng/mL
t1/2 [1, 3]: 43.6 min
tmax [1, 3]: 49.4 min
AUCinf [1, 4]: 369 ng·h/mL
AUClast [1, 4]: 367 ng·h/mL
Cmax [1, 4]: 243 ng/mL
t1/2 [1, 4]: 38.6 min
tmax [1, 4]: 76.2 min
Mean AUCinf of bendamustine relative to that of the metabolite (times higher) [1]: 10.6 times
exposure relative to that of bendamustine [1]: approximately 9%
AUCinf after oral administration as % of AUCinf after intravenous administration [1]: 86%
% Aeinf [2, 5]: 0.459%
% Aelast [2, 5]: 0.457%
Aeinf [2, 5]: 0.435 mg
Aelast [2, 5]: 0.433 mg
CLR [2, 5]: 1.29 L/h
% Aeinf [2, 6]: 0.354%
% Aelast [2, 6]: 0.353%
Aeinf [2, 6]: 0.336 mg
Aelast [2, 6]: 0.334 mg
CLR [2, 6]: 0.856 L/h
% Aeinf [2, 7]: 0.018-1.6%
% Aelast [2, 7]: 0.018-1.6%
Aeinf [2, 7]: 0.017 to 1.6 mg
Aelast [2, 7]: 0.017 to 1.5 mg
CLR [2, 7]: 0.082 to 5.2 L/h
% Aeinf [2, 8]: 0.611%
% Aelast [2, 8]: 0.61%
Aeinf [2, 8]: 0.636 mg
Aelast [2, 8]: 0.635 mg
CLR [2, 8]: 2.14 L/h
% Aeinf [2, 9]: 0.537%
% Aelast [2, 9]: 0.553%
Aeinf [2, 9]: 0.558 mg
Aelast [2, 9]: 0.576 mg
CLR [2, 9]: 1.49 L/h
% Aeinf [2, 10]: 0.13-1.5%
% Aelast [2, 10]: 0.12-1.6%
Aeinf [2, 10]: 0.13 to 1.6 mg
Aelast [2, 10]: 0.13 to 1.7 mg
CLR [2, 10]: 0.45 to 7.4 L/h
percentage of the dose excreted in urine as metabolite [2]: 0.6%

O=C(O)CCCc1nc2cc(N(CCCl)CCCl)ccc2[nH]1 [Batch M4, N-desmethylbendamustine]
AUCinf [1, 11]: 42.5 ng·h/mL
AUClast [1, 11]: 40.8 ng·h/mL
Cmax [1, 11]: 33.6 ng/mL
t1/2 [1, 11]: 32.6 min
tmax [1, 11]: 56.1 min
AUCinf [1, 12]: 44.4 ng·h/mL
AUClast [1, 12]: 42.8 ng·h/mL
Cmax [1, 12]: 26.9 ng/mL
t1/2 [1, 12]: 30.9 min
tmax [1, 12]: 79.5 min
Mean AUCinf of bendamustine relative to that of the metabolite (times higher) [1]: 88 times
exposure relative to that of bendamustine [1]: ~1%
AUCinf after oral administration as % of AUCinf after intravenous administration [1]: 88%
% Aeinf [2, 13]: 0.081%
% Aelast [2, 13]: 0.086%
Aeinf [2, 13]: 0.071 mg
Aelast [2, 13]: 0.075 mg
CLR [2, 13]: 1.74 L/h
% Aeinf [2, 14]: 0.045%
% Aelast [2, 14]: 0.043%
Aeinf [2, 14]: 0.039 mg
Aelast [2, 14]: 0.038 mg
CLR [2, 14]: 1.66 L/h
% Aeinf [2, 15]: 0.0039-0.17%
% Aelast [2, 15]: 0.0028-0.21%
Aeinf [2, 15]: 0.0034 to 0.15 mg
Aelast [2, 15]: 0.0025 to 0.18 mg
CLR [2, 15]: 0.18 to 5.3 L/h
% Aeinf [2, 16]: 0.109%
% Aelast [2, 16]: 0.113%
Aeinf [2, 16]: 0.105 mg
Aelast [2, 16]: 0.109 mg
CLR [2, 16]: 2.83 L/h
% Aeinf [2, 17]: 0.104%
% Aelast [2, 17]: 0.104%
Aeinf [2, 17]: 0.1 mg
Aelast [2, 17]: 0.1 mg
CLR [2, 17]: 2.24 L/h
% Aeinf [2, 18]: 0.034-0.22%
% Aelast [2, 18]: 0.019-0.21%
Aeinf [2, 18]: 0.033 to 0.21 mg
Aelast [2, 18]: 0.019 to 0.21 mg
CLR [2, 18]: 0.78 to 7.1 L/h
percentage of the dose excreted in urine as metabolite [2]: 0.1%
